# Measurements published in patent US20210387949A1, “NEW SELECTIVE MODULATORS OF INSECT NICOTINIC ACETYLCHOLINE RECEPTORS” (UNIVERSITE DE NANTES, priority 2018, published 2021).
# Read-outs that look alike come from different tables or passages of the source.
# What was measured:
# [1] = test system: honeybee Apis mellifera; assay: Oral toxicity against honeybee; type: in vivo; conditions: for % mortality 24 h / % mortality 48 h: oral, DMSO 1%; for Toxicity for bees: higher concentrations (150 ng/bee), in words
# Description: Honeybees were kept from hives located at the University of Orleans and transferred to the laboratory incubators for experiments (30±1.5° C.; 12/12 h 0/N). They were placed in six different cages, 20 bees per cage, with 40% sucrose solution (control group) or tested compounds.
# All tests were carried out using adult worker honeybees, Apis mellifera L (Hymenoptera: Apidae) taken from two queen colonies. These colonies were disease-free and had received no chemical treatments (Eg. Varroacide). For oral toxicity tests, adult worker bees were collected from the hive combs (avoiding the brood nest area) or from the flight board.
# Stock solutions of compounds were dissolved in dimethyl sulfoxide (DMSO) to obtain 500 ng/μL and stocked at −20° C. These samples were then diluted in sucrose solution (40%; w/v), for final experiments. […] Solutions of the test doses were stirred immediately prior to use and were visually homogenous when proposed to bees. Bee allocation to the treatment groups was made impartially. Before being used for the test, bees were subjected to a starvation period of between 2 h and 3 h under test conditions (For review, see Nauen, R.; Ebbinghaus-Kintscher, U.; Schmuck, R., Toxicity and nicotinic acetylcholine receptor interaction of imidacloprid and its metabolites in Apis mellifera (Hymenoptera: Apidae). Pest Management Science 2001, 57, (7), 577-586).
# Six batches of bees (20 bees per batch) were subjected to different doses of the test compound (nominal doses between 50 ng/bee and […]). Doses were determined according to the lethal dose of neonicotinoid insecticides inducing bee toxic effects (Table 3). Controls received sucrose solution containing 0.25% DMSO. The glass test feeders containing any unconsumed portions of the doses were removed and after each experiment a fresh sucrose solution was supplied in feeders within the cages. For each concentration three replicates were made (180 bees/concentration). Mortality was measured at 24 h and 48 h after treatment.
# [2] = test system: cercal nerve giant interneuron synapses within the cockroach sixth abdominal ganglion (A6); assay: Mannitol-gap recordings, neurotoxic effect on insect cholinergic synaptic transmission; type: cell-based; conditions: for Depolarization of the sixth abdominal ganglion: in words; for Reversal of synaptic depolarization after wash-out: effect also observed 2 h after application; for EC50: read-out: EC50 of depolarization
# Description: Neurotoxic effect was studied using mannitol-gap recordings. Experiments were performed on the cercal nerve giant interneuron synapses located within the cockroach sixth abdominal ganglion (A6) using the mannitol-gap method pioneered by Callec (Callec, J. J.; Sattelle, D. B., A simple technique for monitoring the synaptic actions of pharmacological agents. J Exp Biol 1973, 59, (3), 725-38; and Callec, J. J.; Sattelle, D. B.; Hue, B.; Pelhate, M., Central synaptic actions of pharmacological agents in insects: oil-gap and mannitol-gap studies. In Neurotox 79, Sherwood, M., Ed. Plenum Press: New York, 1980; pp 93-100).
# Electrical events were recorded using external electrodes. A non-electrolyte medium (mannitol) was interposed between the recording sites (Callec, J. J.; Sattelle, D. B.; Hue, B.; Pelhate, M., Central synaptic actions of pharmacological agents in insects: oil-gap and mannitol-gap studies. In Neurotox 79, Sherwood, M., Ed. Plenum Press: New York, 1980; pp 93-100). The main advantages of this method were to preserve the recordings of the unitary or evoked excitatory postsynaptic potentials (EPSP) and the postsynaptic polarization. Consequently, monitoring the variations of EPSP amplitude and/or polarization induced by drug application enables dose-response curves to be recorded. Moreover, this set-up allows long-term experiments to be performed and test solutions can be readily applied without any of the technical problems associated with intracellular recording.
# A6 was carefully desheathed to facilitate penetration of bath-applied drugs. The recording electrodes were connected to the input of high-impedance amplifier, whose outputs were passed to a numeric oscilloscope (Hameg, Germany) and a chart recorder (Kipp and Zonen, B D 111, Holland). Variation of postsynaptic polarization was monitored on a chart recorder and the cEPSPs were evoked by electrical stimulations of the ipsilateral cercal nerve XI using a dual pulse stimulator (Campden 915, USA). TMX was applied during 3 min in the same conditions as previously published (Buckingham, S.; Lapied, B.; Corronc, H.; Sattelle, F., Imidacloprid actions on insect neuronal acetylcholine receptors. J Exp Biol 1997, 200, (Pt 21), 2685-92; and Thany, S. H., Agonist actions of clothianidin on synaptic and extrasynaptic nicotinic acetylcholine receptors expressed on cockroach sixth abdominal ganglion. Neurotoxicology 2009, 30, (6), 1045-52), with a micropump fast perfusion (Harvard Apparatus) that produced a constant solution exchange (500 μL/min). All muscarinic and nicotinic antagonists were bath-applied for at least 20 min before a single application of TMX. Recordings were made at room temperature.
# To compare the depolarizations, the peak amplitudes were normalized (V/Vmax). The dose-response curve was derived from the fitted curve following the equation:
# y=Vmin+(Vmax−Vmin)/(1+10^(log EC^50^−X)H)
# where Y is the normalized response, Vmax and Vmin are the maximum and minimum responses, H is the Hill coefficient, EC50 is the concentration giving half the maximum response and X is the logarithm of the compound concentration.
# [3] = test system: Honey bees Apis mellifera; conditions: literature values (Iwasa 2004; Stark 1995); cited from earlier work
# [4] = bath application, dose-response curve of sixth abdominal ganglion depolarization
smiles,measurement,setting,value
"Cc1ccc(S(=O)(=O)N2CCC[C@H]2C#N)cn1 [Compound 3iv, (S)-1-((6-methylpyridin-3-yl)sulfonyl)pyrrolidine-2-carbonitrile]",% mortality 24 h,[1]; 50 ng/bee,0%
same,% mortality 48 h,[1]; 50 ng/bee,0%
same,% mortality 24 h,[1]; 150 ng/bee,0%
same,% mortality 48 h,[1]; 150 ng/bee,0%
same,Toxicity for bees,[1],not toxic for bees
same,Depolarization of the sixth abdominal ganglion,[2]; bath application,strong depolarization
same,Reversal of synaptic depolarization after wash-out,[2],not reversed after wash-out
"COc1ccc(S(=O)(=O)N2CCCC2C#N)cn1 (centres unmarked) [Compound 3iii, 1-((6-methoxypyridin-3-yl)sulfonyl)pyrrolidine-2-carbonitrile]",% mortality 24 h,[1]; 50 ng/bee,3.3%
same,% mortality 48 h,[1]; 50 ng/bee,5.0%
same,% mortality 24 h,[1]; 150 ng/bee,2.5%
same,% mortality 48 h,[1]; 150 ng/bee,3.7%
same,EC50,[2]; [4],4.25 µM
same,Depolarization of the sixth abdominal ganglion,[2]; bath application,strong depolarization
same,Reversal of synaptic depolarization after wash-out,[2],not reversed after wash-out
"O=S(=O)(c1ccc(Cl)nc1)N1CCCC1 [Compound 3da, 2-chloro-5-(pyrrolidin-1-ylsulfonyl)pyridine]",melting point,,134 °C
"Cc1ccc(S(=O)(=O)N2CCCC2)cc1 [Compound 3aa, 1-tosylpyrrolidine]",melting point,,129 °C
"N#C[C@@H]1CCCN1S(=O)(=O)c1ccc(Cl)cc1 [Compound 3bc, (S)-1-((4-chlorophenyl)sulfonyl) pyrrolidine-2-carbonitrile]",melting point,,115 °C
"O=[N+]([O-])NC1=NCCN1Cc1ccc(Cl)nc1 [Imidacloprid, reference compound]",EC50,[2],~15 µM
"N#CC1CCCN1S(=O)(=O)c1ccc(Cl)cc1 (centres unmarked) [Compound 3bb, 1-((4-chlorophenyl)sulfonyl) pyrrolidine-2-carbonitrile]",melting point,,115 °C
CCN(Cc1ccc(Cl)nc1)/C(=C/[N+](=O)[O-])NC [Nitenpyram],LD50,[3],138 ng/bee
CN1COCN(Cc2cnc(Cl)s2)/C1=N\[N+](=O)[O-] [Thiamethoxam],LD50,[3],29.9 ng/bee (Iwasa 2004)
"O=S(=O)(c1ccc(Cl)cc1)N1CCCC1 [Compound 3ba, 1-((4-chlorophenyl)sulfonyl) pyrrolidine]",melting point,,106 °C
"N#C[C@@H]1CCCN1S(=O)(=O)c1ccc(Cl)nc1 [Compound 3i, (S)-1-((6-chloropyridin-3-yl)sulfonyl)pyrrolidine-2-carbonitrile]",% mortality 24 h,[1]; 50 ng/bee,3.3%
same,% mortality 48 h,[1]; 50 ng/bee,10.0%
same,% mortality 24 h,[1]; 150 ng/bee,0%
same,% mortality 48 h,[1]; 150 ng/bee,0%
same,EC50,[2]; [4],19 µM
same,Depolarization of the sixth abdominal ganglion,[2]; bath application,strong depolarization
same,Reversal of synaptic depolarization after wash-out,[2],not reversed after wash-out
"COc1ccc(S(=O)(=O)N2CCCC2)cn1 [Compound 3ii, 2-methoxy-5-(pyrrolidin-1-ylsulfonyl)pyridine]",% mortality 24 h,[1]; 50 ng/bee,0%
same,% mortality 48 h,[1]; 50 ng/bee,3.3%
same,% mortality 24 h,[1]; 150 ng/bee,0%
same,% mortality 48 h,[1]; 150 ng/bee,1.2%
same,Toxicity for bees,[1],not toxic for bees
same,EC50,[2]; [4],8.02 µM
same,Depolarization of the sixth abdominal ganglion,[2]; bath application,strong depolarization
same,Reversal of synaptic depolarization after wash-out,[2],not reversed after wash-out
"Cc1ccc(S(=O)(=O)N2CCC[C@H]2C#N)cc1 [Compound 3ac, (S)-1-tosylpyrrolidine-2-carbonitrile]",melting point,,102 °C
CN/C(=N/CC1CCOC1)N[N+](=O)[O-] (centres unmarked) [Dinotefuran],LD50,[3],75 ng/bee (Iwasa 2004)
CN/C(=N\[N+](=O)[O-])NCc1cnc(Cl)s1 [Clothianidin],LD50,[3],21.8 ng/bee (Iwasa 2004)
"Cc1ccc(S(=O)(=O)N2CCCC2C#N)cc1 (centres unmarked) [Compound 3ab, 1-tosylpyrrolidine-2-carbonitrile]",melting point,,102 °C
